Data published in ChEMBL document CHEMBL1132638, “New (sulfonyloxy)piperazinyldibenzazepines as potential atypical antipsychotics: chemistry and pharmacological evaluation” (J Med Chem, 1999).

Experiments:
[1] = target: T1, Muscarinic acetylcholine receptor M1 (Homo sapiens, UniProt P11229); assay: Inhibition of binding of 1.0 nM [3H]pirenzepine to cloned human Muscarinic acetylcholine receptor M1 expressed in membranes from CHO-K1 cells; assay type: cell-based
T1 sequence (P11229 whole entry): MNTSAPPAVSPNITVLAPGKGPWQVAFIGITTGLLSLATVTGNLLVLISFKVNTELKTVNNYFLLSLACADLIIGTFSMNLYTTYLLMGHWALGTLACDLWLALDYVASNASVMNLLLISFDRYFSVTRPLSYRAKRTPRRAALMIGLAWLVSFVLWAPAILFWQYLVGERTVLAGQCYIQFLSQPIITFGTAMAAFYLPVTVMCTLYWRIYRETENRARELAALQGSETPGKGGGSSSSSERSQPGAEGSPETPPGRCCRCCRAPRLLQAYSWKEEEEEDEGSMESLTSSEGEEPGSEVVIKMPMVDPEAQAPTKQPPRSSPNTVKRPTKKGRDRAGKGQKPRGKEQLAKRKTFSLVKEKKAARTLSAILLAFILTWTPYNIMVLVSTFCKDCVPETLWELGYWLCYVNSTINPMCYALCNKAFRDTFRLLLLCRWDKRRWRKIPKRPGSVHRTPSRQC

[2] = system: Rattus norvegicus; assay: Inhibition of catalepsy in rat by subcutaneous administration of compound; assay type: functional; details: sc
[3] = Therapeutic ratio by Peroral dose of administration (quotient ED50 catalepsy/ED50 climbing); assay type: ADME, organism-based; details: in vivo, po; read-out: Therapeutic ratio
[4] = Partition coefficient (logP); assay type: physicochemical; details: octanol/water
[5] = system: Rattus norvegicus; assay: Compound is measured for inhibition of catalepsy in rat by peroral administration of compound; assay type: functional; details: po
[6] = target: T2, D(4) dopamine receptor (Homo sapiens, UniProt P21917); assay: Binding affinity towards human D4.2 receptor
T2 sequence (P21917 whole entry): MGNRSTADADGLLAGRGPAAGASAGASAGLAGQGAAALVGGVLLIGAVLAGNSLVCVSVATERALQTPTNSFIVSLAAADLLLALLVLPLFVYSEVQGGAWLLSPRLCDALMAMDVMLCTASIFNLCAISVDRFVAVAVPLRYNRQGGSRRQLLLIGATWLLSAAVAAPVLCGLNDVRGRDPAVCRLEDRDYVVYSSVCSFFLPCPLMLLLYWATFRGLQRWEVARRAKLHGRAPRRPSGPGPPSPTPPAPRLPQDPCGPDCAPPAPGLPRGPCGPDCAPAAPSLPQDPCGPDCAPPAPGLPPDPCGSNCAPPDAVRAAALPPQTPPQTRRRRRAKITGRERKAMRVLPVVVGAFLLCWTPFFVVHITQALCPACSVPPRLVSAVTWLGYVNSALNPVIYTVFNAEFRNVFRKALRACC

[7] = in vivo; details: sc
Description: Therapeutic ratio by Subcutaneous dose of administration (quotient ED50 catalepsy/ED50 climbing)

[8] = target: 5-hydroxytryptamine receptor 2A (Rattus norvegicus, UniProt P14842); assay: biochemical
Sequence of 5-hydroxytryptamine receptor 2A (P14842 whole entry): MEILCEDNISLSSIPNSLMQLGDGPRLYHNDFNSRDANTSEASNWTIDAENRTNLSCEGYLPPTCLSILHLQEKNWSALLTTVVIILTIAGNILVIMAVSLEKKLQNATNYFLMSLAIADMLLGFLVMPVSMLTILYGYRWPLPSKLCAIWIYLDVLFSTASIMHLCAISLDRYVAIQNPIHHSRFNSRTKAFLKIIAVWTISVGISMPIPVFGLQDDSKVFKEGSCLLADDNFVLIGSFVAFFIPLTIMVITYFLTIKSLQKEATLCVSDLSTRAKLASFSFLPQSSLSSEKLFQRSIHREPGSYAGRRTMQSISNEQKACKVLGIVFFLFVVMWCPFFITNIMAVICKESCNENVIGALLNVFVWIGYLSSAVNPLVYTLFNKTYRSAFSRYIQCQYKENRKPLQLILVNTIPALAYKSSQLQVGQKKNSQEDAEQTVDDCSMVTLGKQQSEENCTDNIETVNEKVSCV
Description: Binding affinity towards 5-hydroxytryptamine 2A receptor from rat frontal cortex using [3H]ketanserin as radioligand

[9] = Delta ED50 value by peroral administration (ED50 catalepsy-ED50 Climbing); assay type: functional
[10] = system: Mus musculus; assay: Inhibition of apomorphine induced climbing affects in mice by administering the compound perorally in mice; assay type: functional
[11] = Delta ED50 value by Subcutaneous administration (ED50 catalepsy-ED50 Climbing); assay type: functional
[12] = target: D(3) dopamine receptor (Homo sapiens, UniProt P35462)
Sequence of D(3) dopamine receptor (P35462 whole entry): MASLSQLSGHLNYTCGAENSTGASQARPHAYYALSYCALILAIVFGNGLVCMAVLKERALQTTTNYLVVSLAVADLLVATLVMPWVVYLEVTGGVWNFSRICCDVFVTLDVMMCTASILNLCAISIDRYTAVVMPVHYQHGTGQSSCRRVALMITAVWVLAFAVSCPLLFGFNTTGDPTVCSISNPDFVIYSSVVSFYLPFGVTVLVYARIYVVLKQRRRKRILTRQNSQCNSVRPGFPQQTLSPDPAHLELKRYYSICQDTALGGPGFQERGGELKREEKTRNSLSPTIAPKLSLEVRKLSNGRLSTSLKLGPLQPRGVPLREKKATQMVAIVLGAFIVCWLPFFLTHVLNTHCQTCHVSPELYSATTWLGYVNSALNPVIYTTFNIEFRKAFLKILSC
Description: Binding affinity towards human Dopamine receptor D3

[13] = system: Mus musculus; assay: Inhibition of apomorphine induced climbing affects in mice by administering the compound subcutaneously in mice; assay type: functional; details: sc
[14] = target: D(1A) dopamine receptor (Rattus norvegicus, UniProt P18901); assay: biochemical
Sequence of D(1A) dopamine receptor (P18901 whole entry): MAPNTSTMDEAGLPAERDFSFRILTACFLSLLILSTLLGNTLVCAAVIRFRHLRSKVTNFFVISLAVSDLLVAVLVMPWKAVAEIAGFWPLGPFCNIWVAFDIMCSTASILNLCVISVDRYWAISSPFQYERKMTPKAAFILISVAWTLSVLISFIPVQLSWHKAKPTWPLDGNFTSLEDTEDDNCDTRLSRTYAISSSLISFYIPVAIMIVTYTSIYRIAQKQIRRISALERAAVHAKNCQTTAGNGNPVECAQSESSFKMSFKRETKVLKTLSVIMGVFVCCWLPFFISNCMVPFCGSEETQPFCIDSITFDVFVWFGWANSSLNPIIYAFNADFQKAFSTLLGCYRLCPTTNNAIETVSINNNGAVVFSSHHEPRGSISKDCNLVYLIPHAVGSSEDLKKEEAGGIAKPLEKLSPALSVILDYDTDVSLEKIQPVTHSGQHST
Description: Binding affinity towards D1 CNS receptor of rat corpus striatum using [3H]SCH-23390 as radioligand

[15] = target: T3, Adrenergic receptor alpha-1 (Rattus norvegicus, UniProt P15823+P23944+P43140); assay: Binding affinity towards alpha-1 adrenergic receptor from rat brain membranes using [3H]prazosin as radioligand
T3 sequence (P15823 whole entry): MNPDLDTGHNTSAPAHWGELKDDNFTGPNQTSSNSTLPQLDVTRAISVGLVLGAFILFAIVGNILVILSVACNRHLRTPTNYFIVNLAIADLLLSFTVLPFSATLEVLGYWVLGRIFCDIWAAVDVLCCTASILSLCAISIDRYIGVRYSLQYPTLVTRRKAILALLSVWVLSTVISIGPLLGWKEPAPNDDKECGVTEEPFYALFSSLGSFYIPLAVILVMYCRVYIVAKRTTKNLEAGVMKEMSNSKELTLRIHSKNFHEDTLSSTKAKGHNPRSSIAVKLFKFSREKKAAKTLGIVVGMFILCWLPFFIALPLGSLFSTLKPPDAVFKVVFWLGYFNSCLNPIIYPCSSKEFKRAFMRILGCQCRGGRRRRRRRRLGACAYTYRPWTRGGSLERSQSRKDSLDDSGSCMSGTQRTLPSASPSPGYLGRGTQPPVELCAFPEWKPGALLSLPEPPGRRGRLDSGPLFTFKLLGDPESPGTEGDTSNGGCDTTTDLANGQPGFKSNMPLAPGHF
T3 sequence (P23944 whole entry): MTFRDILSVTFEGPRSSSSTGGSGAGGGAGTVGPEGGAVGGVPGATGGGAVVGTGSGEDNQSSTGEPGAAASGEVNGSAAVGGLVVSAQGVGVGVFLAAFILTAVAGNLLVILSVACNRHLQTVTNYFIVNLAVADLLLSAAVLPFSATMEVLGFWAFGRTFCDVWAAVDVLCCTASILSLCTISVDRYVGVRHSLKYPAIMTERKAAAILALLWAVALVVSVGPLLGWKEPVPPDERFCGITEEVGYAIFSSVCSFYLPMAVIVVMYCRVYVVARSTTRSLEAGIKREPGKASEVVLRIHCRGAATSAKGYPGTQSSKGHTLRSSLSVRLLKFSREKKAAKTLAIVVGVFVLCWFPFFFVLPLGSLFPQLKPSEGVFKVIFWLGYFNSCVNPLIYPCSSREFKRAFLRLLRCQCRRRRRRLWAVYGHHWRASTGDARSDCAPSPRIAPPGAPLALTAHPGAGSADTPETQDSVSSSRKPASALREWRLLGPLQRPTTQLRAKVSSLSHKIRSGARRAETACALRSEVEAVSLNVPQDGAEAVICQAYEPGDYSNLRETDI
T3 sequence (P43140 whole entry): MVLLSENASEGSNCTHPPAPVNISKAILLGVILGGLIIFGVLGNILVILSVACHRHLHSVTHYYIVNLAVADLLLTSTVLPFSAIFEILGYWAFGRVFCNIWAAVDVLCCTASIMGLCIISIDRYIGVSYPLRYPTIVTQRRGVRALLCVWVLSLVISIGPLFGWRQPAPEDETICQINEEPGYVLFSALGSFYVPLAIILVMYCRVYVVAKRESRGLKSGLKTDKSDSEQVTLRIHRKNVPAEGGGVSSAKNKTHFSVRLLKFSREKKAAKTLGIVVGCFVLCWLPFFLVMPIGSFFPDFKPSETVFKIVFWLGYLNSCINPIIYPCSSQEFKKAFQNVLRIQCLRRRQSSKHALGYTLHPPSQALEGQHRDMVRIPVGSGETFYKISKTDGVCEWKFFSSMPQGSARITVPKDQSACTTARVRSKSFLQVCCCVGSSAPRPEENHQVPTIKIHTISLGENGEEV

[16] = target: T4, 5-hydroxytryptamine receptor 2C (Rattus norvegicus, UniProt P08909)
T4 sequence (P08909 whole entry): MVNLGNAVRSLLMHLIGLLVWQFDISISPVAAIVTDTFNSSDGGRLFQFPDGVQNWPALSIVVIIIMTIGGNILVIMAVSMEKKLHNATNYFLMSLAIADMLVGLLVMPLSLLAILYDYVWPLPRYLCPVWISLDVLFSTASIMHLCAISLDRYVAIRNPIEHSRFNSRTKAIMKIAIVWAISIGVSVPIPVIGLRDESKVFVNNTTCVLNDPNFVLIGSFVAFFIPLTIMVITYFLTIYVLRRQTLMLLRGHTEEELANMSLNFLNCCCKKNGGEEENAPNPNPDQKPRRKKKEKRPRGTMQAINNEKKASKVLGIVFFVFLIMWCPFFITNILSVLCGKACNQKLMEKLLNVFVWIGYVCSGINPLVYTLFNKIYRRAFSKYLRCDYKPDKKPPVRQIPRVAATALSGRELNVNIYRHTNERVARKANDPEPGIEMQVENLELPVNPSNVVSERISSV
Description: Binding affinity towards 5-HT2C receptor from rat using [3H]mesulergine as radioligand

[17] = system: Mus musculus; assay: Compound is measured for inhibition of apomorphine induced climbing affects in mice by administering the compound subcutaneously (sc) in mice; assay type: functional
[18] = Antipsychotic activity was determined from subcutaneous administration of compound in mice (ED50 catalepsy-ED50 Climbing); assay type: functional
[19] = organism: Rattus norvegicus; assay: Ex vivo accumulation of L-DOPA was measured in striatum of rats
[20] = target: T3, Adrenergic receptor alpha-1; assay: In vitro binding affinity towards Alpha-1 adrenergic receptor by the displacement of [3H]prazosin radioligand in rat cortical homogenates
[21] = system: Rattus norvegicus; assay: Compound is measured for inhibition of catalepsy in rats by peroral administration of compound; assay type: functional; details: po
[22] = target: T2, D(4) dopamine receptor; assay: Compound was tested in vitro for its binding affinity towards human Dopamine receptor D4.2
[23] = system: Rattus norvegicus; assay: Compound is measured for inhibition of catalepsy in rats by subcutaneous administration of compound; assay type: functional; details: sc
[24] = Mus musculus, po, read-out: ED50

SMILES | IC50 [1] | logP [4] | IC50 [6] | IC50 [12] | ED50 [2] | ED50 [5] | selectivity ratio [7] | ED50 [10, 24] | Delta ED50 [11] | ED50 [13] | also measured
COc1ccc2c(c1)N=C(N1CCN(C)CC1)c1ccccc1N2 | – | 2.71 | – | – | – | – | – | – | – | – | –
CN1CCN(C2=Nc3ccccc3Sc3ccc(Cl)cc32)CC1 [CLOTHIAPINE] | – | – | – | – | 0.72 mg/kg | – | 2.7 | – | – | – | ED50 [17]: 0.27 mg/kg; Delta ED50 [18]: 0.45 mg/kg
CN1CCN(C2=Nc3cc(Cl)ccc3Nc3ccccc32)CC1 [CLOZAPINE] | – | 3.48 | – | – | > 32.6 mg/kg | > 100 mg/kg | – | 17 mg/kg | – | 5.6 mg/kg | ED50 [19]: 17 mg/kg
O=C(CCCN1CCC(O)(c2ccc(Cl)cc2)CC1)c1ccc(F)cc1 [HALOPERIDOL] | – | 3.98 | – | – | 0.25 mg/kg | 1.5 mg/kg | – | – | – | 0.1 mg/kg | ED50 [19]: 0.1 mg/kg
CN1CCN(C2=Nc3ccccc3Oc3ccc(Cl)cc32)CC1 [LOXAPINE] | 5.5 µM | – | – | 0.022 µM | – | – | – | 0.04 mg/kg | – | – | IC50 [20]: 0.018 µM; ED50 [21]: < 1 mg/kg; ED50 [10]: 0.04 mg/kg; IC50 [22]: 0.014 µM; ED50 [23]: 0.35 mg/kg

The next lines start with results.

IC50 [1] | logP [4] | IC50 [6] | IC50 [12] | SMILES | ED50 [2] | ED50 [5] | selectivity ratio [7] | ED50 [10, 24] | Delta ED50 [11] | ED50 [13] | also measured
> 1 µM | 3.58 | 0.12 µM | 0.053 µM | CN1CCN(C2=Nc3ccccc3Nc3ccc(OS(=O)(=O)C(F)(F)F)cc32)CC1 | > 44 mg/kg | > 100 mg/kg | > 20 | 11 mg/kg | >41.9 mg/kg | 2.1 mg/kg | selectivity ratio [3]: > 9; IC50 [8]: 0.043 µM; Delta ED50 [9]: >89 mg/kg
– | 2.71 | – | – | COc1ccc2c(c1)C(N1CCN(C)CC1)=Nc1ccccc1N2 | – | – | – | – | – | – | –
0.46 µM | 4.04 | 0.57 µM | 0.008 µM | CN1CCN(C2=Nc3ccccc3Sc3ccc(OS(=O)(=O)C(F)(F)F)cc32)CC1 | 30 mg/kg | – | 11.5 | – | 27.4 mg/kg | 2.6 mg/kg | IC50 [14]: 0.1 µM; IC50 [15]: 0.0036 µM; IC50 [16]: 0.28 µM; IC50 [8]: 0.11 µM
– | 3.48 | 0.11 µM | 0.12 µM | CN1CCN(C2=Nc3ccccc3Nc3ccc(Cl)cc32)CC1 [ISOCLOZAPINE] | 2 mg/kg | – | – | – | 0.3 mg/kg | 1.7 mg/kg | –
